Test results as given in publication PMC11882969 (Nature Communications, 2025).
Several values for one entry are separate records, joined by “and”; a condition that tells them apart may be missing. Equal entries are not always repeated.

Columns and labels:
[1] = target: T1, hCB1 (Homo sapiens, UniProt P21554); assay: bioSensAll ebBRET signaling profiling, hCB1; assay type: cell-based; design: host or cells: HEK293SL cells, transient PEI transfection; settings: for Gi1 hCB1 / GoB hCB1: single replicate values, FigS6a; for EC50: read-out: EC50 [95% CI]; for Emax: normalized to CP-55,940
T1 sequence (P21554 whole entry): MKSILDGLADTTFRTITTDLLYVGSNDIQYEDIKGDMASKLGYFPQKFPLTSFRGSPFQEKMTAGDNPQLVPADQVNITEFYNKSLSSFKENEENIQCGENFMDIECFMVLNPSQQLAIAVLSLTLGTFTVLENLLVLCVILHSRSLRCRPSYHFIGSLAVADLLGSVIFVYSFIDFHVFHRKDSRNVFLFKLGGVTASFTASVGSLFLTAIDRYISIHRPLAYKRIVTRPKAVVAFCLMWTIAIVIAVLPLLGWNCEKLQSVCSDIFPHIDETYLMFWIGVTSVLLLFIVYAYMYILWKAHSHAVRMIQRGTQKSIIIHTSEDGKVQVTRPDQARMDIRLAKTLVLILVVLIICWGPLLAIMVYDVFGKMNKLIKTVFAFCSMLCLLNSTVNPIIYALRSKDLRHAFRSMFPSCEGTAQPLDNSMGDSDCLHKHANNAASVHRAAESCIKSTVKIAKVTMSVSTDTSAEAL

[2] = target: T2, CB1 (rCB1) (Rattus norvegicus, UniProt P20272); assay: Single-point radioligand displacement screen; assay type: binding; settings: 10 µM, 1 µM or 300 nM by cell colour (not visible)
T2 sequence (P20272 whole entry): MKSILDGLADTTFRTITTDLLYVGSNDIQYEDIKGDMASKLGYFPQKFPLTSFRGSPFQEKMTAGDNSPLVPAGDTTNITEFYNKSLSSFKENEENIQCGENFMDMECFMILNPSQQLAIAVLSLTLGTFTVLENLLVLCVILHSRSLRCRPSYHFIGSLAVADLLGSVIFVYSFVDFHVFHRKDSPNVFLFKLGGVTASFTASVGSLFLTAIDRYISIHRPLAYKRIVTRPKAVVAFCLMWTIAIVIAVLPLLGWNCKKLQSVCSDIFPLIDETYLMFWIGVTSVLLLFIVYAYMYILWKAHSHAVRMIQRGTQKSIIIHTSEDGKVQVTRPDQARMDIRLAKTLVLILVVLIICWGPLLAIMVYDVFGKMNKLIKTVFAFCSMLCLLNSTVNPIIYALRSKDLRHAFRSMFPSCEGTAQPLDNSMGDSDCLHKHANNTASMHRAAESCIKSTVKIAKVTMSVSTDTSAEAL

[3] = target: T2, CB1 (rCB1); assay: Radioligand competition binding, [3H]-CP-55,940, rat brain membranes
[4] = target: T1, hCB1; assay: Tango β-arrestin-2 recruitment, HTLA cells, CB1R; assay type: cell-based; design: expressed in transfected cells; host or cells: HTLA cells (gift of R. Axel), transient transfection

SMILES: COC(=O)C(NC(=O)c1cc(C)n(-c2cccc(C(F)(F)F)c2)n1)c1cccs1 (stereo not drawn) [‘60154]
- Gi1 hCB1 ([1]; Log [Compound] (M) -9.61989): 0.08902
- GoB hCB1 ([1]; Log [Compound] (M) -9.61989): 0.7808
- Gi1 hCB1 ([1]; Log [Compound] (M) -10.0969): -0.8206
- GoB hCB1 ([1]; Log [Compound] (M) -10.0969): -0.1723
- Gi1 hCB1 ([1]; Log [Compound] (M) -10.5529): 0.8599
- GoB hCB1 ([1]; Log [Compound] (M) -10.5529): -2.762
- Gi1 hCB1 ([1]; Log [Compound] (M) -11.0177): 1.677
- GoB hCB1 ([1]; Log [Compound] (M) -11.0177): -1.018
- Gi1 hCB1 ([1]; Log [Compound] (M) -11.4949): 1.6461
- GoB hCB1 ([1]; Log [Compound] (M) -11.4949): -1.935
- Gi1 hCB1 ([1]; Log [Compound] (M) -11.9208): -0.003475
- GoB hCB1 ([1]; Log [Compound] (M) -11.9208): -0.2982
- Gi1 hCB1 ([1]; Log [Compound] (M) -12.3979): 0.3049
- GoB hCB1 ([1]; Log [Compound] (M) -12.3979): 0.619
- Gi1 hCB1 ([1]; Log [Compound] (M) -12.8861): 1.261
- GoB hCB1 ([1]; Log [Compound] (M) -12.8861): -2.69
- Gi1 hCB1 ([1]; Log [Compound] (M) -13): 0.459 and 0.9986
- GoB hCB1 ([1]; Log [Compound] (M) -13): -0.2622 and -1.953
- pEC50 [95% CI] ([1]; hCB1 Gi1): 7.6 [7.5 – 7.7]
- pEC50 [95% CI] ([1]; hCB1 GoB): 7.7 [7.7 – 7.8]
- pEC50 [95% CI] ([1]; hCB1 Gz): 7.8 [7.4 – 8.1]
- EC50 ([1]; hCB1 Gi1): 2.5 nM
- EC50 ([1]; hCB1 GoB): 18.4 nM
- EC50 ([1]; hCB1 Gz): 17.5 nM
- Emax ([1]; read-out: Emax [95% CI], hCB1 Gi1): 92%
- Emax ([1]; read-out: Emax [95% CI], hCB1 GoB): 100%
- Emax ([1]; read-out: Emax [95% CI], hCB1 Gz): 121%
- % 1H-CP-55,940 displacement (mean) from single point screen [2]: 97.23%
- improvement in affinity (free energy) ([3]; CF3 replacing F, ‘51486 vs ‘60154): -1.7 kcal/mol
- LLE (lipophilic ligand efficiency) ([3]; LLE = pIC50 − clogP): 3.5
- binding free energy ΔG ([3]; from measured Ki): 10.0 kcal/mol
- LE (ligand efficiency) ([3]; from rCB1 affinity): 0.36
- pKi [95% CI] ([3]; rCB1): 7.4 [7.2 – 7.5]
- Ki ([3]; read-out: Ki [95% CI], rCB1, [3H]-CP-55,940): 44 nM and 44.3 nM
- fold improvement in CB1R affinity ([3]; vs parent hit or analog without the change): 17 fold
- Emax ([4]; HTLA, hCB1, read-out: Tango ß-arrestin recruitment Emax): 39%
- response, replicate values of concentration-response curve (FigS7f) ([4]; Log[drug], M = -4.52): 20.429 and 104.707 and 123.061 and 26.6803 and 2.239 and 9.553 and 21.4993 and 25.3085 and 22.5804
- response at Log[drug], M -4.52 (FigS4e) ([4]; Log[drug], M = -4.52, individual replicates): 36.2928 and 40.0634 and 37.595 and 38.9593 and 35.7322 and 28.0596 and 40.2042 and 37.7287 and 36.7316 and 48.023 and 52.3904 and 37.2251
- response, replicate values of concentration-response curve (FigS7f) ([4]; Log[drug], M = -5): 29.3399 and 77.9872 and 24.9124 and 21.905 and 24.6119 and -7.914 and 14.0694 and 22.9469 and 35.7257 and 39.8379 and 27.6728 and 20.59
- response at Log[drug], M -5 (FigS4e) ([4]; Log[drug], M = -5, individual replicates): 27.1965 and 33.9994 and 36.3175 and 44.6129 and 35.5189 and 28.3176 and 42.1758 and 38.9685 and 43.9354 and 46.1208 and 46.0399 and 37.7973
- response, replicate values of concentration-response curve (FigS7f) ([4]; Log[drug], M = -5.52): 24.9035 and 48.7158 and 91.1283 and -6.947 and -26.9779 and -11.1207 and 46.9121 and 22.8407 and -5.557 and 12.4866 and 10.6983 and 18.3267
- response at Log[drug], M -5.52 (FigS4e) ([4]; Log[drug], M = -5.52, individual replicates): 25.9735 and 23.5078 and 35.2885 and 29.1149 and 28.5437 and 33.06 and 31.1872 and 38.5344 and 34.9915 and 38.6816 and 30.9446 and 24.7853
- response, replicate values of concentration-response curve (FigS7f) ([4]; Log[drug], M = -6): 35.6397 and 64.0988 and 28.3754 and -0.07579 and -2.1717 and -13.0474 and 37.7825 and -1.0184 and -20.7108 and 24.6113 and 35.271 and 22.6916
- response at Log[drug], M -6 (FigS4e) ([4]; Log[drug], M = -6, individual replicates): 18.7026 and 18.3517 and 20.9876 and 21.9355 and 21.9032 and 30.9802 and 39.6213 and 23.6016 and 27.6778 and 23.7782 and 27.0192 and 15.1437
- response, replicate values of concentration-response curve (FigS7f) ([4]; Log[drug], M = -6.52): 40.4184 and 15.2889 and -15.0213 and 0.4345 and 12.418 and 31.9131 and 56.5195 and 30.6699 and -7.454 and 15.9018 and 24.7629 and -25.11
- response at Log[drug], M -6.52 (FigS4e) ([4]; Log[drug], M = -6.52, individual replicates): 2.7065 and 1.809 and 4.4042 and 2.4679 and 5.955 and 7.47 and 7.413 and 8.766 and 8.7 and 7.813 and 3.502 and 4.219
- response, replicate values of concentration-response curve (FigS7f) ([4]; Log[drug], M = -7): 42.117 and 22.4701 and 33.4423 and -35.9633 and 6.562 and -3.7308 and 26.543 and 5.232 and -0.3284 and 16.0836 and -9.206 and -14.6626
- response at Log[drug], M -7 (FigS4e) ([4]; Log[drug], M = -7, individual replicates): -0.1594 and 1.156 and 1.734 and 0.4738 and 1.35 and 4.375 and 5.525 and -1.39 and -1.9125 and 2.9502 and 2.623 and 0.09812
- response, replicate values of concentration-response curve (FigS7f) ([4]; Log[drug], M = -7.52): 9.097 and 42.2455 and 14.1224 and 6.121 and -38.1578 and 8.235 and 7.554 and -8.104 and 19.7008 and -1.133 and -13.7734
- response at Log[drug], M -7.52 (FigS4e) ([4]; Log[drug], M = -7.52, individual replicates): -0.8122 and -1.1619 and -0.1273 and 2.722 and 1.436 and 3.312 and 3.337 and -1.53 and 0.254 and -0.2279 and 0.3901 and 2.167
- response at Log[drug], M -8 (FigS4e) ([4]; Log[drug], M = -8, individual replicates): -0.5798 and -1.11 and -0.9423 and 0.6357 and 0.4201 and 2.003 and 3.003 and -1.545 and 0.894 and 0.1363 and 0.04065 and -0.5839
- response at Log[drug], M -8.52 (FigS4e) ([4]; Log[drug], M = -8.52, individual replicates): -0.1435 and -1.173 and 0.8807 and -1.256 and 3.396 and 0.2695 and 3.693 and -1.556 and 1.54 and 0.762 and 0.3566 and -1.166
- response at Log[drug], M -9 (FigS4e) ([4]; Log[drug], M = -9, individual replicates): -0.3789 and 0.9257 and 0.4985 and -1.1206 and 0.6246 and 1.649 and 1.459 and 1.082 and -0.1538 and 1.773 and 1.969 and 1.368
- response, replicate values of concentration-response curve (FigS7f) ([4]; Log[drug], M = -9.52): 41.217 and -5.872 and -26.7955 and -2.208 and 11.6321 and -16.1909 and 10.2609 and 13.9367 and -21.8387 and 26.5917
- response at Log[drug], M -9.52 (FigS4e) ([4]; Log[drug], M = -9.52, individual replicates): -0.6308 and 0.506 and 1.398 and 0.3411 and 1.417 and 1.054 and 1.983 and 0.4806 and -1.1508 and 1.754 and 1.621 and -0.4835
- response, replicate values of concentration-response curve (FigS7f) ([4]; Log[drug], M = -10): 24.3711 and 8.545 and -42.2513 and 15.4728 and -21.9203 and 6.572 and 26.8747 and -5.278 and 28.0467 and 13.9517
- response at Log[drug], M -10 (FigS4e) ([4]; Log[drug], M = -10, individual replicates): -0.3624 and -0.5584 and 1.6 and 1.1356 and 0.03407 and 2.157 and 0.3066 and -2.677 and -0.1348 and -0.07275 and 2.928 and 0.8882
- response at Log[drug], M -10.52 (FigS4e) ([4]; Log[drug], M = -10.52, individual replicates): -0.1972 and -0.5734 and -0.1162 and -0.5884 and 2.053 and 3.553 and 2.404 and 0.5855 and 0.2182 and 0.2755 and 0.7811 and -2.185
- response at Log[drug], M -11 (FigS4e) ([4]; Log[drug], M = -11, individual replicates): -0.4863 and -0.2436 and -0.1687 and -1.788 and -0.3582 and 1.843 and 0.2942 and 1.859 and 1.201 and 2.6701 and -0.898 and 1.465
- response at Log[drug], M -11.52 (FigS4e) ([4]; Log[drug], M = -11.52, individual replicates): -1.461 and -1.915 and -0.401 and -1.735 and -0.6638 and -0.2757 and -0.3004 and 0.6619 and 0.7048 and -0.5021 and 3.748 and -0.3785
- response at Log[drug], M -12 (FigS4e) ([4]; Log[drug], M = -12, individual replicates): 0.3314 and 0.2511 and -0.1836 and 1.061 and -0.3335 and 0.1951 and -0.1931 and -0.7644 and -0.8837 and -0.1348 and 1.783 and -1.1281
- Tango ß-arrestin recruitment pEC50 ([4]; hCB1): 6.1 [6.0 – 6.1]
- EC50 ([4]; hCB1, read-out: Tango ß-arrestin recruitment EC50): 819 nM
